Measurements from US6759538B2, “Substituted diphenyl heterocycles useful for treating HCV infection” (priority 2001, dated 2004).

Target: HCV replicon
Test: HCV replicon assay (luciferase)
Type: cell-based, Hepatitis C virus (HCV)
Conditions: 5-2 Luc replicon cells, 24 hours with compound, luciferase emission; first symbol of Replicon/Western
Description: In one embodiment, the inhibitory activity of the compounds can be confirmed in a replicon assay that assesses the ability of a test compound to block or inhibit HCV replication in replicon cells. One example of a suitable replicon assay is the liver cell-line Huh 7-based replicon assay described in Lohmann et al., 1999, Science 285:110-113. A specific example of this replicon assay which utilizes luciferase translation is provided in the Examples Section. In one embodiment of this assay, the amount of test compound that yields a 50% reduction in translation as compared to a control cell (IC50) may be determined.
The inhibitory activity of certain exemplary compounds of the invention was confirmed using an HCV replicon assay. The HCV replicon can include such features as the HCV 5′ untranslated region including the HCV IRES, the HCV 3′ untranslated region, selected HCV genes encoding HCV polypeptides, selectable markers, and a reporter gene such as luciferase, GFP, etc. In the assay, actively dividing 5-2 Luc replicon-comprising cells (obtained from Rolf Bartenschlager; see Lohmann et al., 1999, Science 285:110-113) were seeded at a density of between about 5,000 and 7,500 cells/well onto 96 well plates (about 90 μl of cells per well) and incubated at 37° C. and 5% CO2 for 24 hours. Then, the test compound (in a volume of about 10 μl) was added to the wells at various concentrations and the cells were incubated for an additional 24 hours before luciferase assay. The media was aspirated from each well and Bright-Glo (Promega, Madison, Wis.) luciferase assay reagents were added to each well according to the manufacturer's instructions. Briefly, the Bright-Glo reagent was diluted 1:1 with PBS and 100 μl of diluted reagent was added to each well. After 5 min of incubation at room temperature, luciferin emission was quantified with a luminometer. In this assay, the amount of test compound that yielded a 50% reduction in luciferase emission (IC50) was determined.

Row | Compound | IC50
1 | CN(C)c1cc(Cl)c(-c2cc(-c3cccc(NC(=O)C(Cl)Cl)c3)on2)c(Cl)c1 [Compound 65, 2,2-Dichloro-N-[3-[3-(2,6-dichloro-4-dimethylaminophenyl)-5-isoxazolyl]phenyl] Acetamide] | ≤ 10 µM
2 | O=C(CCl)Nc1cccc(-c2cc(-c3c(Cl)cccc3Cl)no2)c1 [Compound 67, 2-Chloro-N-[3-[3-(2,6-dichlorophenyl)-5-isoxazolyl]phenyl] Acetamide] | ≤ 10 µM
3 | O=C(Nc1cccc(-c2cc(-c3c(Cl)cc(OCCCN4CCOCC4)cc3Cl)no2)c1)C(Cl)Cl [Compound 73, 2,2-Dichloro-N-[3-[3-[2,6-dichloro-4-(N-morpholinopropyleneoxy)phenyl]-5-isoxazolyl]-phenyl] Acetamide] | ≤ 10 µM
4 | COc1cccc(C(F)(F)F)c1-c1cc(-c2cccc(NC(=O)C(Cl)Cl)c2)on1 [Compound 77, 2,2-Dichloro-N-[3-[3-(2-methoxy-6-trifluoromethylphenyl)-5-isoxazolyl]phenyl] Acetamide] | ≤ 10 µM
5 | O=C(Nc1cccc(-c2cc(-c3c(Cl)cccc3C3CC3)no2)c1)C(Cl)Cl [Compound 79, 2,2-Dichloro-N-[3-[3-(2-chloro-6-cyclopropylphenyl)-5-isoxazolyl]phenyl] Acetamide] | ≤ 10 µM
6 | COc1cccc(Cl)c1-c1cc(-c2cccc(NC(=O)C(Cl)Cl)c2)on1 [Compound 81, 2,2-Dichloro-N-[3-[3-(2-chloro-6-methoxyphenyl)-5-isoxazolyl]phenyl] Acetamide] | ≤ 10 µM
7 | O=C(Nc1cccc(-c2cc(-c3c(O)cccc3Cl)no2)c1)C(Cl)Cl [Compound 83, 2,2-Dichloro-N-[3-[3-(2-chloro-6-hydroxyphenyl)-5-isoxazolyl]phenyl] Acetamide] | ≤ 10 µM
8 | Cc1cccc(C(F)(F)F)c1-c1cc(-c2cccc(NC(=O)C(Cl)Cl)c2)on1 [Compound 85, 2,2-Dichloro-N-[3-[3-(2-methyl-6-trifluoromethylphenyl)-5-isoxazolyl]phenyl] Acetamide] | ≤ 10 µM
9 | O=C(Nc1cccc(-c2noc(-c3c(Cl)cccc3Cl)n2)c1)C(Cl)Cl [Compound 87, 2,2-Dichloro-N-[3-[5-(2,6-dichlorophenyl)-3-(1,2,4-oxadiazolyl)]phenyl] Acetamide] | ≤ 10 µM
10 | O=C(Nc1cccc(-c2cc(-c3c(C4CC4)cccc3C(F)(F)F)no2)c1)C(Cl)Cl [Compound 89, 2,2-Dichloro-N-[3-[3-(2-cyclopropyl-6-trifluoromethylphenyl)-5-isoxazolyl]phenyl] Acetamide] | ≤ 10 µM
11 | COc1cccc(C)c1-c1cc(-c2cccc(NC(=O)C(Cl)Cl)c2)on1 [Compound 91, 2,2-Dichloro-N-[3-[3-(2-methoxy-6-methylphenyl)-5-isoxazolyl]phenyl] Acetamide] | ≤ 10 µM
12 | CC(C)c1cccc(C(F)(F)F)c1-c1cc(-c2cccc(NC(=O)C(Cl)Cl)c2)on1 [Compound 93, 2,2-Dichloro-N-[3-[3-(2-isopropyl-6-trifluoromethylphenyl)-5-isoxazolyl]phenyl] Acetamide] | ≤ 10 µM
13 | O=C(Nc1cccc(-c2cc(-c3c(Cl)cccc3OCCN3CCOCC3)no2)c1)C(Cl)Cl [Compound 95, 2,2-Dichloro-N-[3-[3-[2-chloro-6-(N-morpholino-2-ethyleneoxy)phenyl]-5-isoxazolyl]-phenyl] Acetamide] | ≤ 10 µM
14 | O=C(Nc1cccc(-c2cc(-c3c(Cl)cccc3C3CCCC3)no2)c1)C(Cl)Cl [Compound 97, 2,2-Dichloro-N-[3-[3-(2-chloro-6-cyclopentylphenyl)-5-isoxazolyl]phenyl] Acetamide] | ≤ 10 µM
15 | CN1CCN(c2cccc(Cl)c2-c2cc(-c3cccc(NC(=O)C(Cl)Cl)c3)on2)CC1 [Compound 99, 2,2-Dichloro-N-[3-[3-[2-chloro-6-(4-methylpiperazino)phenyl]-5-isoxazolyl]phenyl] Acetamide] | ≤ 10 µM
16 | CCCCc1cccc(Cl)c1-c1cc(-c2cccc(NC(=O)C(Cl)Cl)c2)on1 [Compound 103, 2,2-Dichloro-N-[3-[3-(2-chloro-6-n-butylphenyl)-5-isoxazolyl]phenyl] Acetamide] | ≤ 10 µM
17 | O=C(Nc1cccc(-c2cc(-c3c(C4CCCC4)cccc3C(F)(F)F)no2)c1)C(Cl)Cl [Compound 105, 2,2-Dichloro-N-[3-[3-(2-cyclopentyl-6-trifluoromethylphenyl)-5-isoxazolyl]phenyl] Acetamide] | ≤ 10 µM

Row | Compound | IC50
18 | O=C(Nc1ccc(S(=O)(=O)NN2CCOCC2)c(-c2cc(-c3c(Cl)cccc3Cl)no2)c1)C(Cl)Cl [Compound 107, 2,2-Dichloro-N-[3-[3-(2,6-dichlorophenyl)-5-isoxazolyl]-4-(N-morpholinosulfamoyl)-phenyl] Acetamide] | ≤ 10 µM
19 | CN1CCN(c2cccc(C(F)(F)F)c2-c2cc(-c3cccc(NC(=O)C(Cl)Cl)c3)on2)CC1 [Compound 109, 2,2-Dichloro-N-[3-[3-[2-trifluoromethyl-6-(4-methylpiperazino)phenyl]-5-isoxazolyl]-phenyl] Acetamide] | ≤ 10 µM
20 | O=C(Nc1cccc(-c2cc(-c3c(Cl)cccc3C3CCCCC3)no2)c1)C(Cl)Cl [Compound 111, 2,2-Dichloro-N-[3-[3-(2-chloro-6-cyclohexylphenyl)-5-isoxazolyl]phenyl] Acetamide] | ≤ 10 µM
21 | O=C(Nc1cccc(-c2cc(-c3ccccc3OC(F)(F)F)no2)c1)C(Cl)Cl [Compound 113, 2,2-Dichloro-N-[3-[3-(2-trifluoromethoxyphenyl)-5-isoxazolyl]phenyl] Acetamide] | ≤ 10 µM
22 | COC(=O)c1ccccc1-c1cc(-c2cccc(NC(=O)C(Cl)Cl)c2)on1 [Compound 115, 2,2-Dichloro-N-[3-[3-(2-carbomethoxy)phenyl-5-isoxazolyl]phenyl] Acetamide] | ≤ 10 µM
23 | O=C(Nc1cccc(-c2cc(-c3c(Cl)cccc3-n3ccnc3)no2)c1)C(Cl)Cl [Compound 117, 2,2-Dichloro-N-[3-[3-[2-chloro-6-(N-imidazolyl)phenyl]-5-isoxazolyl]phenyl] Acetamide] | ≤ 10 µM
24 | CC(C)Oc1ccccc1-c1cc(-c2cccc(NC(=O)C(Cl)Cl)c2)on1 [Compound 119, 2,2-Dichloro-N-[3-[3-(2-isopropyloxyphenyl)-5-isoxazolyl]phenyl] Acetamide] | ≤ 10 µM
25 | CC(C)c1cccc(C(C)C)c1-c1cc(-c2cccc(NC(=O)C(Cl)Cl)c2)on1 [Compound 121, 2,2-Dichloro-N-[3-[3-(2,6-diisopropylphenyl)-5-isoxazolyl]phenyl] Acetamide] | ≤ 10 µM
26 | O=C(Nc1cccc(-c2cc(-c3ccccc3-c3ccccc3)no2)c1)C(Cl)Cl [Compound 123, 2,2-Dichloro-N-[3-[3-(2-phenyl)phenyl-5-isoxazolyl]phenyl] Acetamide] | ≤ 10 µM
27 | O=C(Nc1cccc(-c2cc(-c3c(Cl)cc(OCCN4CCCCC4)cc3Cl)no2)c1)C(Cl)Cl [Compound 125, 2,2-Dichloro-N-[3-[3-[2,6-dichloro-4-(N-piperidinylethylenoxy)phenyl]-5-isoxazolyl]-phenyl] Acetamide] | ≤ 10 µM
28 | COc1ccc(NC(=O)C(Cl)Cl)cc1-c1cc(-c2c(Cl)cccc2Cl)no1 [Compound 127, 2,2-Dichloro-N-[3-[3-(2,6-dichlorophenyl)-5-isoxazolyl]-4-methoxyphenyl] Acetamide] | ≤ 10 µM
29 | O=C(Nc1cccc(-c2cc(-c3ccccc3C3CCCC3)no2)c1)C(Cl)Cl [Compound 129, 2,2-Dichloro-N-[3-[3-(2-cyclopentylphenyl)-5-isoxazolyl]phenyl] Acetamide] | ≤ 10 µM
30 | CN(C)CCN(C)c1cccc(Cl)c1-c1cc(-c2cccc(NC(=O)C(Cl)Cl)c2)on1 [Compound 131, 2-Dichloro-N-[3-[3-[2-chloro-6-(N,N-dimethylethylene-N′-methylamino)phenyl]-5-isoxazolyl]-phenyl] Acetamide] | ≤ 10 µM
31 | O=C(Nc1cccc(-c2cc(-c3c(Cl)ccc(Cl)c3Cl)no2)c1)C(Cl)Cl [Compound 137, 2,2-Dichloro-N-[3-[3-(2,3,6-trichlorophenyl)-5-isoxazolyl]phenyl] Acetamide] | > 10 µM
32 | O=C(O)c1ccc(Cl)c(-c2cc(-c3cccc(NC(=O)C(Cl)Cl)c3)on2)c1Cl [Compound 139, 2,2-Dichloro-N-[3-[3-(3-carboxy-2,6-dichlorophenyl)-5-isoxazolyl]phenyl] Acetamide] | > 10 µM
33 | O=C(Nc1cccc(-c2cc(-c3cc(C(F)(F)F)ccc3Cl)no2)c1)C(Cl)Cl [Compound 141, 2,2-Dichloro-N-[3-[3-(2-chloro-5-trifluoromethylphenyl)-5-isoxazolyl]phenyl] Acetamide] | > 10 µM
34 | O=C(Nc1cccc(-c2cc(-c3c(Cl)cc(Cl)cc3OCCN3CCOCC3)no2)c1)C(Cl)Cl [Compound 143, 2,2-Dichloro-N-[3-[3-[2,4-dichloro-6-(N-morpholino-2-ethyleneoxy)phenyl]-5-isoxazolyl]-phenyl] Acetamide] | > 10 µM
